Source: patent publication US20260248949A1, “COMPOSITION AND METHOD” (Optimus Salvus Limited, priority 2022, published 2026)

Settings: fasted subjects, 100 mg CBD equivalent by mouth, 1 hour post ingestion
Protocol: Fasted subjects were administered either a single cannabidiol capsule (100 mg cannabidiol) or two cannabidiol/cyclodextrin capsules (total 100 mg cannabidiol equivalent) by mouth. The capsules were taken with a standard glass of water. Capillary blood was drawn one hour after ingestion and the quantity of cannabidiol and cannabidiol metabolites in blood analysed by a certified laboratory.

SMILES: C=C(C)[C@@H]1CCC(C)=C[C@H]1c1c(O)cc(CCCCC)cc1O [Plain CBD, cannabidiol]
- Concentration of CBD in capillary blood: 11.52 ng/mL
- Concentration of CBD-COOH in capillary blood: 13.14 ng/mL
- Concentration of CBD-OH in capillary blood: 1.85 ng/mL
- Concentration, Total (CBD and metabolites) in capillary blood: 26.77 ng/mL
